Assay results as given in US8198447B2, “Fused tricyclic compound having aldose reductase inhibitory activity” (National University Corporation University of Toyama, priority 2007, dated 2012).

Assays:
Aldose reductase II = Aldose reductase II (Homo sapiens, UniProt P15121); test: Aldose reductase inhibitory activity (NADPH decrease at 340 nm, DL-glyceraldehyde substrate); format: biochemical; details: pH 6.2, 100 mM DL-glyceraldehyde, 1.5 mM NADPH
Procedure: A reaction solution containing a 200 mM of a phosphate buffer solution (pH 6.2), 1.5 mM of reduced nicotinamide adenine dinucleotide phosphate (NADPH), 1 mg/ml of bovine serum albumin, a test compound, and 100 mM of DL-glyceraldehyde as a substrate was prepared. Aldose reductase II (5.1×10^−1 unit/ml) was added to the solution to initiate the reaction, and the amount of NADPH reduced by the reaction was measured at an absorption wavelength of 340 nm using a spectrophotometer.

[1] = tested on: mouse leukemia adriamycin sensitive strain P388/S; test: Cancer cell sensitivity test (MTT); format: cell-based; details: P388/S cells, test compound 25 μM, 44 hours, MTT-formazan at 540 nm; for inhibition at 25 µM: Mus musculus, read-out: INHIBITORY RATE (%)
Procedure: Cells of mouse leukemia adriamycin sensitive strain P388/S were cultured in an RPMI1640 culture medium (5% fetal bovine serum, […] 2-mercaptoethanol, 30 μM kanamycin) under conditions of 37° C. and 5% CO2, and used for a compound sensitivity test.
The cell suspension (1.35×10^4 cells/ml) was added to a 96 well plate, 100 μl per well.
After culturing under the conditions of 37° C. and 5% CO2 for 16 hours, a solution of the test compound dissolved in DMSO to a concentration of 25 μM was added, followed by continuation of culture for a further 44 hours, while only DMSO was added to a control to continue the culture.
After culturing, […] (PBS, pH 7.4), was added in an amount of 25 μl/well, followed by incubation for four hours to produce MTT-formazan.
After removing supernatant by aspiration, 200 μl of DMSO was added and the absorbance of MTT-formazan at 540 nm was measured.

Row | SMILES | IC50 (Aldose reductase II) | inhibition at 25 µM [1] | INHIBITORY RATE (%) [1]
1 | Cc1cc(C)c2c3c(n(CC(=O)O)c2c1)C(=O)SCC3 [Compound 63, (5,7-Dimethyl-1-oxo-3,4-dihydro-1H-2-thia-9-azafluoren-9-yl)acetic acid] | 5.9 µM | – | –
2 | CCOC(=O)Cn1c2c(c3cc(F)ccc31)CCN(Cc1ccccc1)C2=O [Compound 22a, (2-Benzyl-6-fluoro-1-oxo-1,2,3,4-tetrahydro-β-carbolin-9-yl)acetic acid ethyl ester] | – | 34.5% | –
3 | O=C(O)Cn1c2c(c3ccccc31)CCN(C(=O)c1ccc(F)cc1F)C2=O [Compound 49, [2-(2,4-Difluorobenzoyl)-1-oxo-1,2,3,4-tetrahydro-β-carbolin-9-yl]acetic acid] | 45.3 µM | – | –
4 | COc1cc(C(=O)N2CCc3c(n(CC(=O)O)c4ccccc34)C2=O)cc(OC)c1OC [Compound 53, [2-(3,4,5-Trimetoxybenzoyl)-1-oxo-1,2,3,4-tetrahydro-β-carbolin-9-yl]acetic acid] | 46.8 µM | – | –
5 | O=C(O)Cn1c2c(c3ccccc31)CCN(C(=O)c1cc(O)c(O)c(O)c1)C2=O [Compound 54, [2-(3,4,5-Trihydroxybenzoyl)-1-oxo-1,2,3,4-tetrahydro-β-carbolin-9-yl]acetic acid] | 48 µM | – | –
6 | O=C(O)Cn1c2c(c3ccc(Cl)cc31)CCN(Cc1ccc(Br)cc1F)C2=S [Compound 37] | 27.4 µM | – | –
7 | COc1ccc(C(=O)N2CCc3c(n(CC(=O)O)c4ccccc34)C2=O)cc1 [Compound 48] | 35.8 µM | – | –
8 | COc1ccc2c(c1)c1c(n2CC(=O)O)C(=S)N(Cc2ccccc2)CC1 [Compound 29, (2-Benzyl-6-methoxy-1-thioxo-1,2,3,4-tetrahydro-β-carbolin-9-yl)acetic acid] | 5.7 µM | – | –
9 | O=C(O)Cn1c2c(c3ccccc31)CCN(c1ccccc1)C2=S [Compound 33, (2-Phenyl-1-thioxo-1,2,3,4-tetrahydro-β-carbolin-9-yl)acetic acid] | 36.3 µM | – | –
10 | O=C(O)Cn1c2c(c3ccccc31)CCN(C(=O)c1ccc(Br)cc1)C2=O [Compound 47, [2-(4-Bromobenzoyl)-1-oxo-1,2,3,4-tetrahydro-β-carbolin-9-yl]acetic acid] | 34.6 µM | – | –
11 | O=C(O)Cn1c2c(c3ccccc31)CCN(C(=O)c1ccc(Br)cc1F)C2=O [Compound 51, [2-(2-Fluoro-4-bromobenzoyl)-1-oxo-1,2,3,4-tetrahydro-β-carbolin-9-yl]acetic acid] | 68.3 µM | – | –
12 | O=C(O)Cn1c2c(c3ccccc31)CCN(Cc1ccco1)C2=S [Compound 35, [2-(2-Furanylmethyl)-1-thioxo-1,2,3,4-tetrahydro-β-carbolin-9-yl]acetic acid] | 16.3 µM | – | –
13 | CC(C)(C)OC(=O)Cn1c2c(c3cc(F)ccc31)CCN(Cc1ccccc1)C2=S [Compound 23, (2-benzyl-6-fluoro-1-thioxo-1,2,3,4-tetrahydro-β-carbolin-9-yl)acetic acid tert-butyl ester] | 5.6 µM | – | 92.9%
14 | O=C(O)Cn1c2c(c3ccccc31)CCN(CC1CCCCC1)C2=S [Compound 34, (2-Cyclohexylmethyl-1-thioxo-1,2,3,4-tetrahydro-β-carbolin-9-yl)acetic acid] | 7.2 µM | – | –
15 | O=C(O)Cn1c2c(c3cc(Cl)ccc31)CCOC2=S [Compound 31, (6-chloro-1-thioxo-3,4-dihydro-1H-pyrano[3,4-b]indol-9-yl) acetic acid] | 11.1 µM | – | –
16 | O=C(O)Cn1c2c(c3ccccc31)CCN(C(=O)c1ccc(F)cc1)C2=O [Compound 46, [2-(4-fluorobenzoyl)-1-oxo-1,2,3,4-tetrahydro-β-carbolin-9-yl)acetic acid] | 21.7 µM | – | –
17 | O=C(O)Cn1c2c(c3ccccc31)CCN(C(=O)c1cc(F)c(F)c(F)c1)C2=O [Compound 52, [2-(3,4,5-Trifluorobenzoyl)-1-oxo-1,2,3,4-tetrahydro-β-carbolin-9-yl]acetic acid] | 55.3 µM | 34.7% | –
18 | O=C(O)Cn1c2c(c3cc(F)ccc31)CCN(Cc1ccccc1F)C2=O [Compound 25, [2-(2-Fluorophenylmethyl)-6-fluoro-1-oxo-1,2,3,4-tetrahydro-β-carbolin-9-yl]acetic acid] | 48.6 µM | – | –
19 | O=C(O)Cn1c2c(c3ccccc31)CCN(Cc1cccs1)C2=S [Compound 36, [2-(2-Thienylmethyl)-1-thioxo-1,2,3,4-tetrahydro-β-carbolin-9-yl]acetic acid] | 7.6 µM | – | –
20 | O=C(O)Cn1c2c(c3cc(F)ccc31)CCN(Cc1ccccc1)C2=O [Compound 22, (2-Benzyl-6-fluoro-1-oxo-1,2,3,4-tetrahydro-β-carbolin-9-yl)acetic acid] | 51.5 µM | – | –
21 | O=C(O)Cn1c2c(c3ccccc31)CCN(C(=O)c1ccccc1)C2=O [Compound 55, (2-Benzoyl-1-oxo-1,2,3,4-tetrahydro-β-carbolin-9-yl)acetic acid] | 53.1 µM | – | –
22 | O=C(O)Cn1c2c(c3c(F)cc(F)cc31)CCN(Cc1ccc(Br)cc1F)C2=S [Compound 39] | 21.1 µM | – | –
23 | O=C(O)Cn1c2c(c3cc(Br)ccc31)CCN(Cc1ccccc1)C2=S [Compound 32, (2-Benzyl-6-bromo-1-thioxo-1,2,3,4-tetrahydro-β-carbolin-9-yl)acetic acid] | 6.2 µM | – | –
24 | O=C(O)Cn1c2c(c3ccccc31)CCN(C(=O)c1cc(F)cc(F)c1)C2=O [Compound 50, [2-(3.5-Difluorobenzoyl)-1-oxo-1,2,3,4-tetrahydro-β-carbolin-9-yl]acetic acid] | 34.5 µM | – | –
25 | O=C(O)Cn1c2c(c3cc(Cl)ccc31)CCOC2=O [Compound 30, (6-Chloro-1-oxo-3,4-dihydro-1H-pyrano[3,4-b]indol-9-yl)acetic acid] | 12.4 µM | 31.1% | –

The next lines start with results.

Row | IC50 (Aldose reductase II) | SMILES | inhibition at 25 µM [1] | INHIBITORY RATE (%) [1]
26 | 3.6 µM | O=C(O)Cn1c2c(c3c(Cl)cccc31)CCSC2=O [Compound 64, (5-Chloro-1-oxo-3,4-dihydro-1H-2-thia-9-azafluoren-9-yl)acetic acid] | – | –
27 | 3.6 µM | O=C(O)Cn1c2c(c3cc(Cc4ccccc4)ccc31)CCSC2=O [Compound 60, (6-Benzyl-1-oxo-3,4-dihydro-1H-2-thia-9-azafluoren-9-yl)acetic acid] | – | –
28 | 1 µM | O=C(O)Cn1c2c(c3c4c(ccc31)CCCC4)CCSC2=O [Compound 66, (8-Oxo-1,3,4,8,10,11-hexahydro-2H-9-thia-7-azabenzo[c]fluoren-7-yl)acetic acid] | – | –
29 | 4.8 µM | O=C(O)Cn1c2c(c3cc(O)ccc31)CCN(Cc1ccccc1)C2=S [Compound 40, (2-Benzyl-6-hydroxy-1-thioxo-1,2,3,4-tetrahydro-β-carbolin-9-yl)acetic acid] | – | –
30 | 3.7 µM | O=C(O)Cn1c2c(c3ccc(Cl)cc31)CCN(Cc1ccccc1)C2=S [Compound 38, (2-Benzyl-7-chloro-1-thioxo-1,2,3,4-tetrahydro-β-carbolin-9-yl)acetic acid] | – | –
31 | 5 µM | O=C(O)Cn1c2c(c3cc(Cl)ccc31)CCN(Cc1ccccc1)C2=S [Compound 27, (2-Benzyl-6-chloro-1-thioxo-1,2,3,4-tetrahydro-β-carbolin-9-yl)acetic acid] | – | –
32 | 1.6 µM | Cc1ccc2c(c1)c1c(n2CC(=O)O)C(=O)SCC1 [Compound 58, (6-Methyl-1-oxo-3,4-dihydro-1H-2-thia-9-azafluoren-9-yl)acetic acid] | – | –
33 | 2.6 µM | O=C(O)COc1ccc2c(c1)c1c(n2CC(=O)O)C(=S)N(Cc2ccccc2)CC1 [Compound 42, (2-Benzyl-6-carboxymethoxy-1-thioxo-1,2,3,4-tetrahydro-β-carbolin-9-yl)acetic acid] | – | –
34 | 5.6 µM | O=C(O)Cn1c2c(c3cc(C4CCCCC4)ccc31)CCSC2=O [Compound 62, (6-Cyclohexyl-1-oxo-3,4-dihydro-1H-2-thia-9-azafluoren-9-yl)acetic acid] | – | –
35 | 2.6 µM | COc1ccc2c(c1)c1c(n2CC(=O)O)C(=O)SCC1 [Compound 61, (6-Methoxy-1-oxo-3,4-dihydro-1H-2-thia-9-azafluoren-9-yl)acetic acid] | – | –
36 | 4.2 µM | O=C(O)Cn1c2c(c3ccccc31)CCN(Cc1ccccc1)C2=S [Compound 26, (2-Benzyl-1-thioxo-1,2,3,4-tetrahydro-β-carbolin-9-yl)acetic acid] | 88.1% | –
37 | 2.8 µM | O=C(O)Cn1c2c(c3ccccc31)CCSC2=O [Compound 57, (1-Oxo-3,4-dihydro-1H-2-thia-9-azafluoren-9-yl)acetic acid] | – | –
38 | 1.4 µM | CC(C)(C)c1ccc2c(c1)c1c(n2CC(=O)O)C(=O)SCC1 [Compound 59, (6-tert-Butyl-1-oxo-3,4-dihydro-1H-2-thia-9-azafluoren-9-yl)acetic acid] | – | –
39 | 1.1 µM | O=C(O)Cn1c2c(c3cc(Cl)ccc31)CCSC2=O [Compound 56, (6-chloro-1-oxo-3,4-dihydro-1H-2-thia-9-azafluoren-9-yl)acetic acid] | – | –
40 | 3.4 µM | O=C(O)Cn1c2c(c3cc4c(cc31)CCCC4)CCSC2=O [Compound 65, (1-Oxo-3,4,6,7,8,9-hexahydro-1H-2-thia-11-azabenzo[b]fluoren-11-yl)acetic acid] | – | –
